Test results as given in ChEMBL document CHEMBL1649565, “Besifloxacin, a novel fluoroquinolone, has broad-spectrum in vitro activity against aerobic and anaerobic bacteria” (Antimicrob Agents Chemother, 2009).
In brackets after ≈: the same amount, converted by molar mass. Activity calls are given as the source filed them. The rule behind the calls is not given here.

Experiments:
Format in all cases: functional
Enterococcus faecium = test: Antibacterial activity against vancomycin- resistant Enterococcus faecium by CLSI M100-S18 method
[1] = system: Staphylococcus saprophyticus; test: Antibacterial activity against Staphylococcus saprophyticus assessed as percent susceptible isolates by CLSI M100-S18 method
Pseudomonas aeruginosa = test: Antibacterial activity against ciprofloxacin-susceptible Pseudomonas aeruginosa by CLSI M7-A7 method
Haemophilus influenzae [2] = test: Antibacterial activity against non-ciprofloxacin-susceptible Haemophilus influenzae by CLSI M7-A7 method
Staphylococcus aureus [3] = test: Antibacterial activity against ciprofloxacin-susceptible and methicillin-resistant Staphylococcus aureus assessed as percent susceptible isolates by CLSI M100-S18 method
[4] = system: Staphylococcus lugdunensis; test: Antibacterial activity against Staphylococcus lugdunensis by CLSI M100-S18 method
Streptococcus pyogenes = test: Antibacterial activity against Streptococcus pyogenes by CLSI M100-S18 method
Citrobacter koseri = test: Antibacterial activity against Citrobacter koseri by CLSI M7-A7 method
Serratia marcescens [5] = test: Antibacterial activity against levofloxacin susceptible Serratia marcescens assessed as percent susceptible isolates by CLSI M7-A7 method
Acinetobacter lwoffii = test: Antibacterial activity against Acinetobacter lwoffii by CLSI M7-A7 method
Streptococcus equinus = test: Antibacterial activity against Streptococcus bovis by CLSI M100-S18 method
Staphylococcus hominis = test: Antibacterial activity against Staphylococcus hominis assessed as percent susceptible isolates by CLSI M100-S18 method
Streptococcus sp. = test: Antibacterial activity against Lancefield Streptococcus sp. group F by CLSI M100-S18 method
[6] = system: Staphylococcus lugdunensis; test: Antibacterial activity against Staphylococcus lugdunensis assessed as percent susceptible isolates by CLSI M100-S18 method
Moraxella catarrhalis = test: Antibacterial activity against Moraxella catarrhalis by CLSI M7-A7 method
Staphylococcus aureus [7] = test: Antibacterial activity against non-ciprofloxacin-susceptible and methicillin-susceptible Staphylococcus aureus by CLSI M100-S18 method
[8] = Antibacterial activity against Lancefield Streptococcus sp. 'group C' by CLSI M100-S18 method
Citrobacter freundii = test: Antibacterial activity against Citrobacter freundii assessed as percent susceptible isolates by CLSI M7-A7 method
Staphylococcus aureus [9] = test: Antibacterial activity against non-ciprofloxacin-susceptible and methicillin-susceptible Staphylococcus aureus assessed as percent susceptible isolates by CLSI M100-S18 method
Enterobacter cloacae = test: Antibacterial activity against Enterobacter cloacae by CLSI M7-A7 method
[10] = system: Staphylococcus epidermidis; test: Antibacterial activity against non-ciprofloxacin-susceptible and methicillin-susceptible Staphylococcus epidermidis assessed as percent susceptible isolates by CLSI M100-S18 method
[11] = system: Staphylococcus epidermidis; test: Antibacterial activity against ciprofloxacin-susceptible and methicillin-resistant Staphylococcus epidermidis by CLSI M100-S18 method
Proteus mirabilis [12] = test: Antibacterial activity against Proteus mirabilis assessed as percent susceptible isolates by CLSI M7-A7 method
Streptococcus pneumoniae [13] = test: Antibacterial activity against non-levofloxacin susceptible Streptococcus pneumoniae by CLSI M100-S18 method
[14] = system: Stenotrophomonas maltophilia; test: Antibacterial activity against levofloxacin-susceptible Stenotrophomonas maltophilia by CLSI M7-A7 method
Haemophilus influenzae [15] = test: Antibacterial activity against ciprofloxacin-susceptible Haemophilus influenzae by CLSI M7-A7 method
[16] = system: Staphylococcus epidermidis; test: Antibacterial activity against ciprofloxacin-susceptible and methicillin-resistant Staphylococcus epidermidis assessed as percent susceptible isolates by CLSI M100-S18 method
Streptococcus oralis = test: Antibacterial activity against Streptococcus oralis by CLSI M100-S18 method
Streptococcus salivarius = test: Antibacterial activity against Streptococcus salivarius by CLSI M100-S18 method
Streptococcus agalactiae = test: Antibacterial activity against Streptococcus agalactiae by CLSI M100-S18 method
Staphylococcus warneri [17] = test: Antibacterial activity against Staphylococcus warneri by CLSI M100-S18 method
[18] = system: Staphylococcus haemolyticus; test: Antibacterial activity against Staphylococcus haemolyticus by CLSI M100-S18 method
Staphylococcus warneri [19] = test: Antibacterial activity against Staphylococcus warneri assessed as percent susceptible isolates by CLSI M100-S18 method
Klebsiella pneumoniae = test: Antibacterial activity against Klebsiella pneumoniae by CLSI M7-A7 method
Staphylococcus aureus [20] = test: Antibacterial activity against ciprofloxacin-susceptible and methicillin-resistant Staphylococcus aureus by CLSI M100-S18 method
Klebsiella oxytoca = test: Antibacterial activity against Klebsiella oxytoca by CLSI M7-A7 method
Streptococcus sanguinis = test: Antibacterial activity against Streptococcus sanguinis by CLSI M100-S18 method
Proteus vulgaris = test: Antibacterial activity against Proteus vulgaris by CLSI M7-A7 method
[21] = system: Stenotrophomonas maltophilia; test: Antibacterial activity against non-levofloxacin susceptible Stenotrophomonas maltophilia by CLSI M7-A7 method
Haemophilus influenzae [22] = test: Antibacterial activity against non-ciprofloxacin-susceptible Haemophilus influenzae assessed as percent susceptible isolates by CLSI M7-A7 method
Enterococcus faecalis = test: Antibacterial activity against vancomycin- resistant Enterococcus faecalis by CLSI M100-S18 method
Serratia marcescens [23] = test: Antibacterial activity against Serratia marcescens by CLSI M7-A7 method
Legionella pneumophila = test: Antibacterial activity against Legionella pneumophila by CLSI M7-A7 method
Streptococcus pneumoniae [24] = test: Antibacterial activity against levofloxacin-susceptible Streptococcus pneumoniae by CLSI M100-S18 method
Proteus mirabilis [25] = test: Antibacterial activity against Proteus mirabilis by CLSI M7-A7 method
[26] = system: Streptococcus intermedius; test: Antibacterial activity against Streptococcus intermedius by CLSI M100-S18 method

For `NC[C@H]1O[C@H](O[C@H]2[C@H](O)[C@@H](O[C@H]3O[C@H](CO)[C@@H](O)[C@H](N)[C@H]3O)[C@H](N)C[C@@H]2N)[C@H](N)C[C@@H]1O` [TOBRAMYCIN], the MIC50 (Enterococcus faecium) was greater than 128 µg/mL, the MIC90 (Enterococcus faecium) was greater than 128 µg/mL and the Activity [1] was 54.5%. The MIC50 (Pseudomonas aeruginosa) was 2 µg/mL (≈ 4.28 µM), the MIC90 (Pseudomonas aeruginosa) was 2 µg/mL (≈ 4.28 µM) and the MIC50 (Haemophilus influenzae [2]) was 4 µg/mL (≈ 8.56 µM). For the same compound, the MIC90 (Haemophilus influenzae [2]) was 8 µg/mL (≈ 17.1 µM), the Activity (Staphylococcus aureus [3]) was 68.4% and the MIC50 [4] was 0.12 µg/mL (≈ 0.257 µM). For the same compound, the MIC90 [4] was 32 µg/mL (≈ 68.4 µM), the MIC50 (Streptococcus pyogenes) was 16 µg/mL (≈ 34.2 µM) and the MIC90 (Streptococcus pyogenes) was 16 µg/mL (≈ 34.2 µM). For the same compound, the MIC50 (Citrobacter koseri) was 0.5 µg/mL (≈ 1.07 µM), the MIC90 (Citrobacter koseri) was 1 µg/mL (≈ 2.14 µM) and the Activity (Serratia marcescens [5]) was 100%. For the same compound, the MIC50 (Acinetobacter lwoffii) was 0.06 µg/mL (≈ 0.128 µM), the MIC90 (Acinetobacter lwoffii) was 0.5 µg/mL (≈ 1.07 µM) and the MIC50 (Streptococcus equinus) was 0.06 µg/mL (≈ 0.128 µM). The MIC90 (Streptococcus equinus) was greater than 8 µg/mL, the Activity (Staphylococcus hominis) was 16% and the MIC50 (Streptococcus sp.) was 0.06 µg/mL (≈ 0.128 µM). For the same compound, the MIC90 (Streptococcus sp.) was greater than 8 µg/mL, the Activity [6] was 46.7% and the MIC50 (Moraxella catarrhalis) was 0.03 µg/mL (≈ 0.0642 µM). The MIC90 (Moraxella catarrhalis) was 0.03 µg/mL (≈ 0.0642 µM), the MIC50 (Staphylococcus aureus [7]) was 1 µg/mL (≈ 2.14 µM) and the MIC90 (Staphylococcus aureus [7]) was greater than 32 µg/mL. It also gave an MIC50 [8] of 0.06 µg/mL (≈ 0.128 µM), an MIC90 [8] greater than 8 µg/mL and an Activity (Citrobacter freundii) of 99%. It also gave an Activity (Staphylococcus aureus [9]) of 27.3%, an MIC50 (Enterobacter cloacae) of 0.25 µg/mL (≈ 0.535 µM) and an MIC90 (Enterobacter cloacae) of 1 µg/mL (≈ 2.14 µM). It also gave an Activity [10] of 16.7%, an MIC50 [11] of 0.03 µg/mL (≈ 0.0642 µM) and an Activity (Proteus mirabilis [12]) of 100%. It also gave an MIC50 (Streptococcus pneumoniae [13]) of 8 µg/mL (≈ 17.1 µM), an MIC90 (Streptococcus pneumoniae [13]) of 16 µg/mL (≈ 34.2 µM) and an MIC [14] of 2 µg/mL (≈ 4.28 µM). The MIC50 (Haemophilus influenzae [15]) was 2 µg/mL (≈ 4.28 µM), the MIC90 (Haemophilus influenzae [15]) was 8 µg/mL (≈ 17.1 µM) and the Activity [16] was 33.3%. The MIC50 (Streptococcus oralis) was 0.06 µg/mL (≈ 0.128 µM), the MIC90 (Streptococcus oralis) was greater than 8 µg/mL and the MIC50 (Streptococcus salivarius) was 0.06 µg/mL (≈ 0.128 µM). The MIC90 (Streptococcus salivarius) was greater than 8 µg/mL, the MIC50 (Streptococcus agalactiae) was 0.06 µg/mL (≈ 0.128 µM) and the MIC90 (Streptococcus agalactiae) was greater than 8 µg/mL. The MIC50 (Staphylococcus warneri [17]) was 0.06 µg/mL (≈ 0.128 µM), the MIC90 (Staphylococcus warneri [17]) was 8 µg/mL (≈ 17.1 µM) and the MIC50 [18] was 2 µg/mL (≈ 4.28 µM). It also gave an MIC90 [18] of 32 µg/mL (≈ 68.4 µM), an Activity (Staphylococcus warneri [19]) of 34% and an MIC50 (Klebsiella pneumoniae) of 0.25 µg/mL (≈ 0.535 µM). For the same compound, the MIC90 (Klebsiella pneumoniae) was 1 µg/mL (≈ 2.14 µM), the MIC50 (Staphylococcus aureus [20]) was 0.5 µg/mL (≈ 1.07 µM) and the MIC90 (Staphylococcus aureus [20]) was 1 µg/mL (≈ 2.14 µM). It also gave an MIC50 (Klebsiella oxytoca) of 0.5 µg/mL (≈ 1.07 µM), an MIC90 (Klebsiella oxytoca) of 1 µg/mL (≈ 2.14 µM) and an MIC50 (Streptococcus sanguinis) of 0.06 µg/mL (≈ 0.128 µM). The MIC90 (Streptococcus sanguinis) was greater than 8 µg/mL, the MIC50 (Proteus vulgaris) was 1 µg/mL (≈ 2.14 µM) and the MIC90 (Proteus vulgaris) was 4 µg/mL (≈ 8.56 µM). For the same compound, the MIC [21] was greater than 8 µg/mL, the Activity (Haemophilus influenzae [22]) was “inactive” and the MIC50 (Enterococcus faecalis) was 16 µg/mL (≈ 34.2 µM). It also gave an MIC90 (Enterococcus faecalis) greater than 128 µg/mL, an MIC50 (Serratia marcescens [23]) of 0.5 µg/mL (≈ 1.07 µM) and an MIC90 (Serratia marcescens [23]) of 1 µg/mL (≈ 2.14 µM). The MIC50 (Legionella pneumophila) was 0.12 µg/mL (≈ 0.257 µM), the MIC90 (Legionella pneumophila) was 1 µg/mL (≈ 2.14 µM) and the MIC50 (Streptococcus pneumoniae [24]) was 8 µg/mL (≈ 17.1 µM). It also gave an MIC90 (Streptococcus pneumoniae [24]) of 16 µg/mL (≈ 34.2 µM), an MIC50 (Proteus mirabilis [25]) of 1 µg/mL (≈ 2.14 µM) and an MIC90 (Proteus mirabilis [25]) of 4 µg/mL (≈ 8.56 µM). It also gave an MIC50 [26] of 0.06 µg/mL (≈ 0.128 µM) and an MIC90 [26] greater than 8 µg/mL.
